Reference: US20200069592A1, “HSP90 INHIBITOR ORAL FORMULATIONS AND RELATED METHODS” (Samus Therapeutics, Inc., priority 2017, published 2020)
Read-outs that look alike come from different tables or passages of the source.

Key:
[1] = female, Sprague Dawley, rat, in vivo, po
Protocol: (§1) The animals used in this study were female Sprague Dawley Rats physiologically normal. At the time of receipt, mice were 200-225 g in weight. […] Ninety-four total animals were observed thereafter. The parenteral administration is performed by tail vein injection.
(§2) Compound 2 was provided in free base form and stored at −20° C., protected from light. Compound 2 was formulated in dosage form immediately prior to use. For oral administration of Compound 2 in ORA-Plus® drinking solution, Compound 2 was suspended in drinking solution ORA-Plus® (Perrigo; Minneapolis, Minn.). First, a mortar and pestle were used to smooth out the Compound 2 powder, then a small amount of ORA-Plus® was added, and next, the mixture was triturated to a thick, smooth paste. The remainder of the ORA-Plus® was added by geometric dilution. The Compound 2 free base and ORA-Plus® mixture was dispensed in a tight, light resistant amber bottle with appropriate labeling. This mixture was shaken well before using, protected from light and kept refrigerated if dosing was delayed. For oral administration of Compound 2 in citric acid buffer with Captisol®, Compound 2 free base powder was dissolved or suspended into 30% Captisol® (Cydex Pharmaceuticals; Lawrence, Kans.) in 60 mM citrate buffer (pH˜4.2) (citric acid and sodium citrate dehydrate (Sigma-Aldrich; St. Louis Mo.)) in sterile water) to each group's working concentration. […] A magnetic stir-bar was used to mix dosing solution, followed by sonication. For intravenous administration, Compound 2 free base powder was dissolved into 15% Captisol® in 5 mM citrate buffer (pH˜4.2) to each group's working concentration. A magnetic stirbar was used to mix dosing solution, followed by sonication. IV dosing solution of Compound 2 free base was filtered with a 0.2 m PVDF filter (Pall Life Sciences; Port Washington, N.Y.) prior to administration.
(§3) Dose levels of Compound 1 were based on the free base, not the salt.
(§4) Animals were randomized using random equilibration of body weights on Day 1 into one of 19 study groups, as shown in Table 23 (Groups 1-19), with 5 animals in each group, except for the 4 animals in Group 19. Body weights were collected Days 1, 2, 3, and/or 4 to accommodate data collection of staggered groups. Gross observations of body weight were noted during the course of the study.

[2] = Plasma pharmacokinetics after single PO or IV administration (Example 5), LC-MS/MS; settings: female, Sprague-Dawley, rat, plasma, dosed as 2HCl; for AUC(0-t): AUC0-last (hr*ng/mL) Mean ± StdDev; for Cmax: Cmax (ng/mL) Mean ± StdDev; for Tmax: Tmax (hr) Mean ± StdDev
Protocol: as §1, §2, §3, §4

[3] = Particle size distribution (Cilas 1180) of as-received and jet milled API (Example 8); assay type: physicochemical
Protocol: Compound 2 API ‘as-received’ (Lots #2064-118-8, #2064-146-9, and # BPR-WS 1828-194D(2HCl)—B1-19) were analyzed for PSD on a Cilas 1180 particle size analyzer. Subsequently jet milled API batches B # L0441-20-JM51mmP1, B # L0441-20-JM51mmP2, B # L0441-20-JM51mmP3, and B # L0441-84-JM146mmP1 were also analyzed for PSD Approximately 50 mg Compound 2-2HCl was dispersed into 40 mL 0.2% (w/w) span 80 in n-hexanes (dispersant) and allowed to mix for 60 minutes. API was kept suspended in dispersant via stirring and sonication during test.
A jet milling study was performed on a batch of Compound 2 2HCl with jet mill Fluid Energy Asset #00170 outfitted with a 51 mm collection loop. Batches B # L0441-29-JM51mmP1, B # L0441-29-JM51mmP2, and B # L0441-29-JM51mmP3 were created from ˜10 g of Compound 2 lot # BPR-WS1828-194D(2HCl)-B1-19 subjected to 3 passes. Jet mill settings for grinder nozzle and pusher nozzle as follows: Pass 1 grinder nozzle=60 psi & pusher nozzle=80 psi, Pass 2 and 3 grinder nozzle=50 psi & pusher nozzle=70 psi.
After successfully jet milling on the R&D scale, B # L0441-84-JM146mmP1 was created from Compound 2-2HCl lot # BPR-17-87-B1-21d which was processed with a single pass to confirm GMP scale up conditions in the R&D laboratory by passing 85 g through the GMP jet mill Jet-O-Mizer Asset #01 16 Model 0101 outfitted with 146 mm collection loop using a standard nylon 4×48-inch collection sock inside a PTFE 4×48-inch sock to minimize fines loss. The pressure settings for the grinder and pusher nozzle were: Grinder nozzle 60 psi, Pusher nozzle 70 psi.

[4] = iv, 12 mg/kg, Group 18: 12 mg/kg IV, 0.9% Saline
[5] = iv, 24 mg/kg, Group 19: 24 mg/kg IV, 0.9% Saline
[6] = po, 24 mg/kg, Group 11: 24 mg/kg PO, ORA-Plus, single dose
[7] = po, 36 mg/kg, Group 12: 36 mg/kg PO, ORA-Plus
[8] = po, 36 mg/kg, Group 15: 36 mg/kg PO, 0.5% Methylcellulose in water
[9] = po, 48 mg/kg, Group 13: 48 mg/kg PO, ORA-Plus
[10] = po, 48 mg/kg, Group 16: 48 mg/kg PO, 0.5% Methylcellulose in water
[11] = po, 60 mg/kg, Group 14: 60 mg/kg PO, ORA-Plus
[12] = po, 60 mg/kg, Group 17: 60 mg/kg PO, 0.5% Methylcellulose in water
[13] = after jet milling, 51 mm collection loop

CC(C)NCCCn1c(Sc2cc3c(cc2I)OCO3)nc2c(N)ncnc21 [Compound 1]
% AUC0-last ORA vs methylcellulose Mean ± StdDev ([1]; 36 mg/kg): 119.11 ± 45.91% | % Cmax ORA vs methylcellulose Mean ± StdDev ([1]; 36 mg/kg): 118.75 ± 64.56% | % AUC0-last ORA vs methylcellulose Mean ± StdDev ([1]; 48 mg/kg): 111.81 ± 69.18% | % Cmax ORA vs methylcellulose Mean ± StdDev ([1]; 48 mg/kg): 89.30 ± 37.98% | % AUC0-last ORA vs methylcellulose Mean ± StdDev ([1]; 60 mg/kg): 70.33 ± 23.05% | % Cmax ORA vs methylcellulose Mean ± StdDev ([1]; 60 mg/kg): 66.16 ± 17.44% | AUC(0-t) [2, 4]: 2470 ± 573 ng·h/mL | Cmax [2, 4]: 1280 ± 325 ng/mL | Tmax [2, 4]: 0.25 h | AUC(0-t) [2, 5]: 5500 ± 2800 ng·h/mL | Cmax [2, 5]: 2080 ± 79.3 ng/mL | Tmax [2, 5]: 0.31 ± 0.13 h | AUC(0-t) [2, 6]: 2700 ± 462 ng·h/mL | Cmax [2, 6]: 807 ± 214 ng/mL | Tmax [2, 6]: 2 h | AUC(0-t) [2, 7]: 3220 ± 870 ng·h/mL | AUC(0-t) [2, 8]: 2850 ± 919 ng·h/mL | Cmax [2, 7]: 853 ± 193 ng/mL | Cmax [2, 8]: 812 ± 270 ng/mL | Tmax [2, 7]: 2 h | Tmax [2, 8]: 2.2 ± 1.1 h | AUC(0-t) [2, 9]: 6500 ± 2030 ng·h/mL | AUC(0-t) [2, 10]: 6500 ± 1690 ng·h/mL | Cmax [2, 9]: 1420 ± 470 ng/mL | Cmax [2, 10]: 1650 ± 271 ng/mL | Tmax [2, 9]: 2.4 ± 0.89 h | Tmax [2, 10]: 1.4 ± 0.55 h | AUC(0-t) [2, 11]: 4870 ± 1420 ng·h/mL | AUC(0-t) [2, 12]: 7320 ± 2440 ng·h/mL | Cmax [2, 11]: 1120 ± 175 ng/mL | Cmax [2, 12]: 1760 ± 458 ng/mL | Tmax [2, 11]: 3 ± 2 h | Tmax [2, 12]: 1.5 ± 0.71 h

CC(C)(C)CNCCn1c(Sc2cc3c(cc2I)OCO3)nc2c(N)ncnc21 [B #132-L0441-20-JM51mmP3]
Particle size d10 [3, 13]: 2.0 μm | Particle size d50 [3, 13]: 4.8 μm | Particle size d90 [3, 13]: 10.1 μm | Particle size span [3, 13]: 8.1 μm

CC(C)(C)CNCCn1c(Sc2cc3c(cc2I)OCO3)nc2c(N)ncnc21 [B #132-L0441-20-JM51mmP1]
Particle size d10 [3, 13]: 3.1 μm | Particle size d50 [3, 13]: 7.9 μm | Particle size d90 [3, 13]: 17.3 μm | Particle size span [3, 13]: 14.2 μm | Particle size d90 ([3]; as quoted for the batches used in Example 9, listed as B # L0441-20-JM51mmP1): 17 um

CC(C)(C)CNCCn1c(Sc2cc3c(cc2I)OCO3)nc2c(N)ncnc21 [B #132-L0441-20-JM51mmP2]
Particle size d10 [3, 13]: 2.3 μm | Particle size d50 [3, 13]: 5.6 μm | Particle size d90 [3, 13]: 11.7 μm | Particle size span [3, 13]: 9.4 μm | Particle size d90 ([3]; as quoted for the batches used in Example 9, listed as B # L0441-20-JM51mmP2): 11 um
